Experimental data reported in patent US10471046B2, “Method for treating, preventing, or reducing the risk of skin infection” (Melinta Subsidiary Corp., priority 2014, dated 2019).
Values after ≈ are worked out from the molar mass of the structure shown.

The compounds below were run on S. aureus (assay: Minimum inhibitory concentrations (MICs) for S. aureus of exemplary compounds (Table 2)). Conditions: Staphylococcus aureus, minimum inhibitory concentrations for S. aureus; read-out: MICs.
Type: cell-based
In short: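 MICs (μg/mL) against S. aureus come from microtiter-tray dilution susceptibility testing per NCCLS M7-A5, comparing growth with and without compound.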

Point of comparison: `CC(=O)NC[C@H]1CN(c2ccc(-c3ccc(CN[C@@H](Cc4c[nH]c5ccccc45)C(N)=O)cc3)c(F)c2)C(=O)O1` [Compound 4175, 2-({4′-[5-(S)-(Acetylamino-methyl)-2-oxo-oxazolidin-3-yl]-2′-fluoro-biphenyl-4-ylmethyl}-amino)-3-(S)-(1H-indol-3-yl)-propionamide], MIC 2 µg/mL (≈ 3.68 µM). Against it:
- CC(=O)NC[C@H]1CN(c2ccc(-c3ccc(CNCc4c[nH]c(-c5ccccc5)n4)cc3)c(F)c2)C(=O)O1 [Compound 4123, N-[3-(2-Fluoro-4′-{[(2-phenyl-1H-imidazol-4-ylmethyl)-amino]-methyl}-biphenyl-4-yl)-2-oxo-oxazolidin-5-(S)-ylmethyl]-acetamide] — 8-fold higher, 16 µg/mL (≈ 31.2 µM)
- CC(=O)NC[C@H]1CN(c2ccc(-c3ccc(C(=O)NCc4ccncc4)cc3)c(F)c2)C(=O)O1 [Compound 4102, 4′-[5-(S)-(Acetylamino-methyl)-2-oxo-oxazolidin-3-yl]-2′-fluoro-biphenyl-4-carboxylic acid (pyridin-4-ylmethyl)-amide] — the same, 2 µg/mL (≈ 4.32 µM)
- CC(=O)NC[C@H]1CN(c2ccc(-c3ccc(CNCc4c(C)nn(C)c4C)cc3)c(F)c2)C(=O)O1 [Compound 4163, N-[3-(2-Fluoro-4′-{[(1,3,5-trimethyl-1H-pyrazol-4-ylmethyl)-amino]-methyl}-biphenyl-4-yl)-2-oxo-oxazolidin-5-(S)-ylmethyl]-acetamide] — 4-fold higher, 8 µg/mL (≈ 16.7 µM)
- CC(=O)NC[C@H]1CN(c2ccc(-c3ccc(CNC(=O)/C=C/c4cn(C)c(=O)n(C)c4=O)cc3)c(F)c2)C(=O)O1 [Compound 4005, N-{4′-[5-(S)-(Acetylamino-methyl)-2-oxo-oxazolidin-3-yl]-2′-fluoro-biphenyl-4-ylmethyl}-3-(1,3-dimethyl-2,4-dioxo-1,2,3,4-tetrahydro-pyrimidin-5-yl)-acrylamide] — the same, 2 µg/mL (≈ 3.64 µM)
- CC(=O)NC[C@H]1CN(c2ccc(-c3ccc(CSCc4ccncc4)cc3)c(F)c2)C(=O)O1 [Compound 4211, N-{3-[2-Fluoro-4′-(pyridin-4-ylmethylsulfanylmethyl)-biphenyl-4-yl]-2-oxo-oxazolidin-5-(S)-ylmethyl}-acetamide] — 8-fold lower, 0.25 µg/mL (≈ 0.537 µM)
- CC(=O)NC[C@H]1CN(c2ccc(-c3ccc(CNCC4CO4)cc3)c(F)c2)C(=O)O1 (stereo partly drawn) [Compound 4210, N-(3-{2-Fluoro-4′-[(oxiranylmethyl-amino)-methyl]-biphenyl-4-yl}-2-oxo-oxazolidin-5-(S)-ylmethyl)-acetamide] — 2-fold higher, 4 µg/mL (≈ 9.67 µM)
- CC(=O)NC[C@H]1CN(c2ccc(-c3ccc(/C=N/Nc4ccccn4)cc3)c(F)c2)C(=O)O1 [Compound 2041, N-{3-[2-Fluoro-4′-(pyridin-2-yl-hydrazonomethyl)-biphenyl-4-yl]-2-oxo-oxazolidin-5-(S)-ylmethyl}-acetamide] — 2-fold lower, 1 µg/mL (≈ 2.23 µM)
- CC(=O)NC[C@H]1CN(c2ccc(-c3ccc(CNCCSc4ncccn4)cc3)c(F)c2)C(=O)O1 [Compound 5009, N-[3-(2-Fluoro-4′-{[2-(pyrimidin-2-ylsulfanyl)-ethylamino]-methyl}-biphenyl-4-yl)-2-oxo-oxazolidin-5-(S)-ylmethyl]-acetamide] — 2-fold lower, 1 µg/mL (≈ 2.02 µM)
- CC(=O)NC[C@H]1CN(c2ccc(-c3ccc(Cn4cc(CNC(=O)CN)nn4)cc3)c(F)c2)C(=O)O1 [Compound 1014, N-(1-{4′-[5-(S)-(Acetylamino-methyl)-2-oxo-oxazolidin-3-yl]-2′-fluoro-biphenyl-4-ylmethyl}-1H-[1,2,3]triazol-4-ylmethyl)-2-amino-acetamide] — 4-fold higher, 8 µg/mL (≈ 16.1 µM)
- CC(=O)NC[C@H]1CN(c2ccc(-c3ccc(CS(=O)(=O)c4nnnn4C)cc3)c(F)c2)C(=O)O1 [Compound 2024, N-{3-[2-Fluoro-4′-(1-methyl-1H-tetrazole-5-sulfonylmethyl)-biphenyl-4-yl]-2-oxo-oxazolidin-5-(S)-ylmethyl}-acetamide] — 8-fold lower, 0.25 µg/mL (≈ 0.512 µM)
- CC(=O)NC[C@H]1CN(c2ccc(-c3ccc(C[S+]([O-])c4nccs4)cc3)c(F)c2)C(=O)O1 (stereo partly drawn) [Compound 2036, N-{3-[2-Fluoro-4′-(thiazole-2-sulfinylmethyl)-biphenyl-4-yl]-2-oxo-oxazolidin-5-(S)-ylmethyl}-acetamide] — 2-fold lower, 1 µg/mL (≈ 2.11 µM)
- CC(=O)NC[C@H]1CN(c2ccc(-c3ccc(CN4CCC(C(N)=O)C4)cc3)c(F)c2)C(=O)O1 (mixture of isomers) [Compound 1093, 1-{4′-[5-(S)-(Acetylamino-methyl)-2-oxo-oxazolidin-3-yl]-2′-fluoro-biphenyl-4-ylmethyl}-pyrrolidine-3-(R/S)-carboxylic acid amide] — the same, 2 µg/mL
- CC(=O)NC[C@H]1CN(c2ccc(-c3cc(C)c(CNCc4ccncc4)cc3C)c(F)c2)C(=O)O1 [Compound 4176, N-[3-(2-Fluoro-2′,5′-dimethyl-4′-{[(pyridin-4-ylmethyl)-amino]-methyl}-biphenyl-4-yl)-2-oxo-oxazolidin-5-(S)-ylmethyl]-acetamide] — 64-fold higher, 128 µg/mL (≈ 269 µM)
- CCc1ncc(CNCc2ccc(-c3ccc(N4C[C@H](CNC(C)=O)OC4=O)cc3F)cc2)[nH]1 [Compound 4124, N-[3-(4′-{[(2-Ethyl-3H-imidazol-4-ylmethyl)-amino]-methyl}-2-fluoro-biphenyl-4-yl)-2-oxo-oxazolidin-5-(S)-ylmethyl]-acetamide] — 8-fold higher, 16 µg/mL (≈ 34.4 µM)
- CC(=O)NC[C@H]1CN(c2ccc(-c3ccc(CNCc4cocn4)cc3)c(F)c2)C(=O)O1 [Compound 4234, N-[3-(2-Fluoro-4′-{[(oxazol-4-ylmethyl)-amino]-methyl}-biphenyl-4-yl)-2-oxo-oxazolidin-5-(S)-ylmethyl]-acetamide] — the same, 2 µg/mL (≈ 4.56 µM)
- CC(=O)NC[C@H]1CN(c2ccc(-c3ccc(Cn4cccc4)cc3)c(F)c2)C(=O)O1 [Compound 1054, N-[3-(2-Fluoro-4′-pyrrol-1-ylmethyl-biphenyl-4-yl)-2-oxo-oxazolidin-5-(S)-ylmethyl]-acetamide] — 4-fold lower, 0.5 µg/mL (≈ 1.23 µM)
- CC(=O)NC[C@H]1CN(c2ccc(-c3ccc(CNCC(=O)N4CCOCC4)cc3)c(F)c2)C(=O)O1 [Compound 4316, N-(3-{2-Fluoro-4′-[(2-morpholin-4-yl-2-oxo-ethylamino)-methyl]-biphenyl-4-yl}-2-oxo-oxazolidin-5-(S)-ylmethyl)-acetamide] — 2-fold higher, 4 µg/mL (≈ 8.26 µM)
- CC(=O)NC[C@H]1CN(c2ccc(-c3ccc(Cn4cnc5c(NCCO)ncnc54)cc3)c(F)c2)C(=O)O1 [Compound 1099, N-(3-{2-Fluoro-4′-[6-(2-hydroxy-ethylamino)-purin-9-ylmethyl]-biphenyl-4-yl}-2-oxo-oxazolidin-5-(S)-ylmethyl)-acetamide] — the same, 2 µg/mL (≈ 3.85 µM)
- CC(=O)NC[C@H]1CN(c2ccc(-c3ccc(CNCCc4c[nH]cn4)cc3)c(F)c2)C(=O)O1 [Compound 4227, N-[3-(2-Fluoro-4′-{[2-(1H-imidazol-4-yl)-ethylamino]-methyl}-biphenyl-4-yl)-2-oxo-oxazolidin-5-(S)-ylmethyl]-acetamide] — 2-fold higher, 4 µg/mL (≈ 8.86 µM)
- CC(=O)NC[C@H]1CN(c2ccc(-c3ccc(CNCc4ccccn4)c(F)c3F)c(F)c2)C(=O)O1 [Compound 4090, N-[2-Oxo-3-(2,2′,3′-trifluoro-4′-{[(pyridin-2-ylmethyl)-amino]-methyl}-biphenyl-4-yl)-oxazolidin-5-(S)-ylmethyl]-acetamide] — 2-fold higher, 4 µg/mL (≈ 8.26 µM)
- CC(=O)NC[C@H]1CN(c2ccc(-c3ccc(CNCc4cnc[nH]4)cc3)c(F)c2)C(=O)O1 [Compound 4066, N-[3-(2-Fluoro-4′-{[(3H-imidazol-4-ylmethyl)-amino]-methyl}-biphenyl-4-yl)-2-oxo-oxazolidin-5-(S)-ylmethyl]-acetamide] — 4-fold higher, 8 µg/mL (≈ 18.3 µM)
- CC(=O)NC[C@H]1CN(c2ccc(-c3ccc(CNCCc4scnc4C)cc3)c(F)c2)C(=O)O1 [Compound 4096, N-[3-(2-Fluoro-4′-{[2-(4-methyl-thiazol-5-yl)-ethylamino]-methyl}-biphenyl-4-yl)-2-oxo-oxazolidin-5-(S)-ylmethyl]-acetamide] — 2-fold higher, 4 µg/mL (≈ 8.29 µM)
- CC(=O)NC[C@H]1CN(c2ccc(-c3ccc(CNC(=O)/C=C/c4ccc(=O)n(C)c4)cc3)c(F)c2)C(=O)O1 [Compound 4193, N-{4′-[5-(S)-(Acetylamino-methyl)-2-oxo-oxazolidin-3-yl]-2′-fluoro-biphenyl-4-ylmethyl}-3-(1-methyl-6-oxo-1,6-dihydro-pyridin-3-yl)-acrylamide] — 4-fold higher, 8 µg/mL (≈ 15.4 µM)
- CC(=O)NC[C@H]1CN(c2ccc(-c3ccc([C@@H](N)Cn4ccnc4)cc3)c(F)c2)C(=O)O1 [Compound 1031, N-{3-[4′-(R)-(1-Amino-2-imidazol-1-yl-ethyl)-2-fluoro-biphenyl-4-yl]-2-oxo-oxazolidin-5-(S)-ylmethyl}-acetamide] — 4-fold higher, 8 µg/mL (≈ 18.3 µM)
- CC(=O)NC[C@H]1CN(c2ccc(-c3ccc(Cc4noc(C)n4)cc3)c(F)c2)C(=O)O1 [Compound 1017, N-{3-[2-Fluoro-4′-(5-(S)-methyl-[1,2,4]oxadiazol-3-ylmethyl)-biphenyl-4-yl]-2-oxo-oxazolidin-5-(S)-ylmethyl}-acetamide] — 2-fold lower, 1 µg/mL (≈ 2.36 µM)
- CC(=O)NC[C@H]1CN(c2ccc(-c3ccc(CNC(=O)[C@@H](Cc4c[nH]c5ccccc45)NC(=O)OC(C)(C)C)cc3)c(F)c2)C(=O)O1 [Compound 4308, [1-(R)-({4′-[5-(S)-(Acetylamino-methyl)-2-oxo-oxazolidin-3-yl]-2′-fluoro-biphenyl-4-ylmethyl}-carbamoyl)-2-(1H-indol-3-yl)-ethyl]-carbamic acid tert-butyl ester] — 64-fold higher, 128 µg/mL (≈ 199 µM)
- CC(=O)NC[C@H]1CN(c2ccc(-c3ccc(CNCc4cn(C)c5ccccc45)cc3)c(F)c2)C(=O)O1 [Compound 4218, N-[3-(2-Fluoro-4′-{[(1-methyl-1H-indol-3-ylmethyl)-amino]-methyl}-biphenyl-4-yl)-2-oxo-oxazolidin-5-(S)-ylmethyl]-acetamide] — the same, 2 µg/mL (≈ 4 µM)
- CC(=O)NC[C@H]1CN(c2ccc(-c3ccc(CNCc4nc5ccccc5s4)cc3)c(F)c2)C(=O)O1 [Compound 4121, N-[3-(4′-{[(Benzothiazol-2-ylmethyl)-amino]-methyl}-2-fluoro-biphenyl-4-yl)-2-oxo-oxazolidin-5-(S)-ylmethyl]-acetamide] — 4-fold lower, 0.5 µg/mL (≈ 0.991 µM)
- CC(=O)NC[C@H]1CN(c2ccc(-c3ccc(CN(CCCF)OCc4ccccc4)cc3)c(F)c2)C(=O)O1 [Compound 4265, N-[3-(4′-{[Benzyloxy-(3-fluoro-propyl)-amino]-methyl}-2-fluoro-biphenyl-4-yl)-2-oxo-oxazolidin-5-(S)-ylmethyl]-acetamide] — 2-fold higher, 4 µg/mL (≈ 7.64 µM)
